For `CCCCc1nc2cc(Br)cc(C(=O)O)c2n1Cc1ccccc1Cl` [Example 4, 5-Bromo-2-n-butyl-1-(2-chlorophenyl)methyl-1H -benzimidazole-7-carboxylic Acid], the melting point was 254 to 255 °C.
For `CCCSc1ncc(C[C@H](NC(=O)CCC)C(=O)O)n1Cc1ccccc1Cl` [Example 1, 3-[(2-Chlorophenyl)methyl]-2-propylthio-N -butyrylhistidine], the melting point was 178 to 181 °C.

Reference: patent US20030187044A1, “Medicament” (SmithKline Beecham p.l.c., priority 1990, published 2003)
